According to patent US7118895B2, “Process for producing aglycon by using diglycosidase and flavor-improved food containing the aglycon and converting agent to be used in the process” (Amano Enzyme Inc., priority 2000, dated 2006):

System: Crude diglycosidase
Test: Examination of temperature in the conversion into isoflavone aglycons by diglycosidase using soybean materials
Format: biochemical, Penicillium multicolor IAM7153
Parameters: Decomposition efficiency of glycitin family in roasted soy flour / Decomposition efficiency of daidzin family in roasted soy flour / Decomposition efficiency of genistin family in soymilk / Decomposition efficiency of daidzin family in soymilk / Decomposition efficiency of glycitin family in defatted soybean / Decomposition efficiency of daidzin family in defatted soybean: concentration or dose not given beside the values
Summary of the method: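 Soybean materials (50 mg) suspended in 20 mM acetate buffer pH 4.0 reacted with crude diglycosidase diluted to 1.88 AU/mL at 80, 65, 55, 45, 37 or 30° C. Reactions stopped with ethanol at 0, 1, 3 and 6 h; isoflavone glycosides and aglycons in supernatant detected by HPLC.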

[1] = 30 °C, heat treatment of enzyme: no, 0 h
[2] = 30 °C, heat treatment of enzyme: no, 1 h
[3] = 30 °C, heat treatment of enzyme: no, 3 h
[4] = 30 °C, heat treatment of enzyme: no, 6 h
[5] = 30 °C, heat treatment of enzyme: yes, 6 h
[6] = 45 °C, heat treatment of enzyme: no, 0 h
[7] = 45 °C, heat treatment of enzyme: no, 1 h
[8] = 45 °C, heat treatment of enzyme: no, 3 h
[9] = 45 °C, heat treatment of enzyme: no, 6 h
[10] = 45 °C, heat treatment of enzyme: yes, 6 h
[11] = 55 °C, heat treatment of enzyme: no, 0 h
[12] = 55 °C, heat treatment of enzyme: no, 1 h
[13] = 55 °C, heat treatment of enzyme: no, 3 h
[14] = 55 °C, heat treatment of enzyme: no, 6 h
[15] = 55 °C, heat treatment of enzyme: yes, 6 h
[16] = 65 °C, heat treatment of enzyme: no, 0 h
[17] = 65 °C, heat treatment of enzyme: no, 1 h
[18] = 65 °C, heat treatment of enzyme: no, 3 h
[19] = 65 °C, heat treatment of enzyme: no, 6 h
[20] = 65 °C, heat treatment of enzyme: yes, 6 h
[21] = 80 °C, heat treatment of enzyme: no, 0 h
[22] = 80 °C, heat treatment of enzyme: no, 1 h
[23] = 80 °C, heat treatment of enzyme: no, 3 h
[24] = 80 °C, heat treatment of enzyme: no, 6 h
[25] = 80 °C, heat treatment of enzyme: yes, 6 h

COc1cc2c(=O)c(-c3ccc(O)cc3)coc2cc1O[C@@H]1O[C@H](COC(=O)CC(=O)O)[C@@H](O)[C@H](O)[C@H]1O [malonylglycitin, 6″-O-malonylglycitin]
Decomposition efficiency of glycitin family in defatted soybean (30° C., heat treatment of enzyme no, reaction time 0 h): 61.3% | Decomposition efficiency of glycitin family in defatted soybean (30° C., heat treatment of enzyme no, reaction time 1 h): 48.3% | Decomposition efficiency of glycitin family in defatted soybean (30° C., heat treatment of enzyme no, reaction time 3 h): 44.6% | Decomposition efficiency of glycitin family in defatted soybean (30° C., heat treatment of enzyme no, reaction time 6 h): 45.6% | Decomposition efficiency of glycitin family in defatted soybean (30° C., heat treatment of enzyme yes, reaction time 6 h): 45.1% | Decomposition efficiency of glycitin family in concentrated soybean protein [1]: 0.4% | Decomposition efficiency of glycitin family in roasted soy flour [1]: not detected | Decomposition efficiency of glycitin family in soymilk [1]: 48.0% | Decomposition efficiency of glycitin family in concentrated soybean protein [2]: 0.5% | Decomposition efficiency of glycitin family in roasted soy flour [2]: not detected | Decomposition efficiency of glycitin family in soymilk [2]: 51.0% | Decomposition efficiency of glycitin family in concentrated soybean protein [3]: 0.5% | Decomposition efficiency of glycitin family in roasted soy flour [3]: not detected | Decomposition efficiency of glycitin family in soymilk [3]: 39.6% | Decomposition efficiency of glycitin family in concentrated soybean protein [4]: 0.5% | Decomposition efficiency of glycitin family in roasted soy flour [4]: not detected | Decomposition efficiency of glycitin family in soymilk [4]: 28.4% | Decomposition efficiency of glycitin family in concentrated soybean protein [5]: 0.4% | Decomposition efficiency of glycitin family in roasted soy flour [5]: not detected | Decomposition efficiency of glycitin family in soymilk [5]: 47.7% | Decomposition efficiency of glycitin family in defatted soybean (45° C., heat treatment of enzyme no, reaction time 0 h): 65.2% | Decomposition efficiency of glycitin family in defatted soybean (45° C., heat treatment of enzyme no, reaction time 1 h): 44.3% | Decomposition efficiency of glycitin family in defatted soybean (45° C., heat treatment of enzyme no, reaction time 3 h): 44.8% | Decomposition efficiency of glycitin family in defatted soybean (45° C., heat treatment of enzyme no, reaction time 6 h): 41.0% | Decomposition efficiency of glycitin family in defatted soybean (45° C., heat treatment of enzyme yes, reaction time 6 h): 44.2% | Decomposition efficiency of glycitin family in concentrated soybean protein [6]: 0.4% | Decomposition efficiency of glycitin family in roasted soy flour [6]: not detected | Decomposition efficiency of glycitin family in soymilk [6]: 49.1% | Decomposition efficiency of glycitin family in concentrated soybean protein [7]: 0.6% | Decomposition efficiency of glycitin family in roasted soy flour [7]: not detected | Decomposition efficiency of glycitin family in soymilk [7]: 46.2% | Decomposition efficiency of glycitin family in concentrated soybean protein [8]: 0.6% | Decomposition efficiency of glycitin family in roasted soy flour [8]: not detected | Decomposition efficiency of glycitin family in soymilk [8]: 29.9% | Decomposition efficiency of glycitin family in concentrated soybean protein [9]: 0.6% | Decomposition efficiency of glycitin family in roasted soy flour [9]: not detected | Decomposition efficiency of glycitin family in soymilk [9]: 15.3% | Decomposition efficiency of glycitin family in concentrated soybean protein [10]: 0.5% | Decomposition efficiency of glycitin family in roasted soy flour [10]: not detected | Decomposition efficiency of glycitin family in soymilk [10]: 47.2% | Decomposition efficiency of glycitin family in defatted soybean (55° C., heat treatment of enzyme no, reaction time 0 h): 61.3% | Decomposition efficiency of glycitin family in defatted soybean (55° C., heat treatment of enzyme no, reaction time 1 h): 44.8% | Decomposition efficiency of glycitin family in defatted soybean (55° C., heat treatment of enzyme no, reaction time 3 h): 42.6% | Decomposition efficiency of glycitin family in defatted soybean (55° C., heat treatment of enzyme no, reaction time 6 h): 42.7% | Decomposition efficiency of glycitin family in defatted soybean (55° C., heat treatment of enzyme yes, reaction time 6 h): 45.5% | Decomposition efficiency of glycitin family in concentrated soybean protein [11]: 0.4% | Decomposition efficiency of glycitin family in roasted soy flour [11]: not detected | Decomposition efficiency of glycitin family in soymilk [11]: 44.6% | Decomposition efficiency of glycitin family in concentrated soybean protein [12]: 0.5% | Decomposition efficiency of glycitin family in roasted soy flour [12]: not detected | Decomposition efficiency of glycitin family in soymilk [12]: 39.1% | Decomposition efficiency of glycitin family in concentrated soybean protein [13]: 0.5% | Decomposition efficiency of glycitin family in roasted soy flour [13]: not detected | Decomposition efficiency of glycitin family in soymilk [13]: 27.7% | Decomposition efficiency of glycitin family in concentrated soybean protein [14]: 0.5% | Decomposition efficiency of glycitin family in roasted soy flour [14]: not detected | Decomposition efficiency of glycitin family in soymilk [14]: 16.5% | Decomposition efficiency of glycitin family in concentrated soybean protein [15]: 0.4% | Decomposition efficiency of glycitin family in roasted soy flour [15]: not detected | Decomposition efficiency of glycitin family in soymilk [15]: 39.9% | Decomposition efficiency of glycitin family in defatted soybean (65° C., heat treatment of enzyme no, reaction time 0 h): 65.2% | Decomposition efficiency of glycitin family in defatted soybean (65° C., heat treatment of enzyme no, reaction time 1 h): 45.3% | Decomposition efficiency of glycitin family in defatted soybean (65° C., heat treatment of enzyme no, reaction time 3 h): 42.1% | Decomposition efficiency of glycitin family in defatted soybean (65° C., heat treatment of enzyme no, reaction time 6 h): 40.0% | Decomposition efficiency of glycitin family in defatted soybean (65° C., heat treatment of enzyme yes, reaction time 6 h): 48.8% | Decomposition efficiency of glycitin family in concentrated soybean protein [16]: 0.4% | Decomposition efficiency of glycitin family in roasted soy flour [16]: not detected | Decomposition efficiency of glycitin family in soymilk [16]: 48.0% | Decomposition efficiency of glycitin family in concentrated soybean protein [17]: 0.5% | Decomposition efficiency of glycitin family in roasted soy flour [17]: not detected | Decomposition efficiency of glycitin family in soymilk [17]: 42.4% | Decomposition efficiency of glycitin family in concentrated soybean protein [18]: 0.5% | Decomposition efficiency of glycitin family in roasted soy flour [18]: not detected | Decomposition efficiency of glycitin family in soymilk [18]: 34.3% | Decomposition efficiency of glycitin family in concentrated soybean protein [19]: 0.4% | Decomposition efficiency of glycitin family in roasted soy flour [19]: not detected | Decomposition efficiency of glycitin family in soymilk [19]: 25.5% | Decomposition efficiency of glycitin family in concentrated soybean protein [20]: 0.4% | Decomposition efficiency of glycitin family in roasted soy flour [20]: not detected | Decomposition efficiency of glycitin family in soymilk [20]: 36.0% | Decomposition efficiency of glycitin family in defatted soybean (80° C., heat treatment of enzyme no, reaction time 0 h): 65.2% | Decomposition efficiency of glycitin family in defatted soybean (80° C., heat treatment of enzyme no, reaction time 1 h): 46.1% | Decomposition efficiency of glycitin family in defatted soybean (80° C., heat treatment of enzyme no, reaction time 3 h): 45.0% | Decomposition efficiency of glycitin family in defatted soybean (80° C., heat treatment of enzyme no, reaction time 6 h): 40.3% | Decomposition efficiency of glycitin family in defatted soybean (80° C., heat treatment of enzyme yes, reaction time 6 h): 48.1% | Decomposition efficiency of glycitin family in concentrated soybean protein [21]: 0.4% | Decomposition efficiency of glycitin family in roasted soy flour [21]: not detected | Decomposition efficiency of glycitin family in soymilk [21]: 49.1% | Decomposition efficiency of glycitin family in concentrated soybean protein [22]: 0.4% | Decomposition efficiency of glycitin family in roasted soy flour [22]: not detected | Decomposition efficiency of glycitin family in soymilk [22]: 43.6% | Decomposition efficiency of glycitin family in concentrated soybean protein [23]: 0.4% | Decomposition efficiency of glycitin family in roasted soy flour [23]: not detected | Decomposition efficiency of glycitin family in soymilk [23]: 32.6% | Decomposition efficiency of glycitin family in concentrated soybean protein [24]: 0.3% | Decomposition efficiency of glycitin family in roasted soy flour [24]: not detected | Decomposition efficiency of glycitin family in soymilk [24]: 21.3% | Decomposition efficiency of glycitin family in concentrated soybean protein [25]: 0.3% | Decomposition efficiency of glycitin family in roasted soy flour [25]: not detected | Decomposition efficiency of glycitin family in soymilk [25]: 19.3%
